In general, efflux ratio refers to a quotient of directional permeabilities that is used to spot active efflux.

Each structure is given as a SMILES string. Like-named read-outs stand apart in the source and are kept apart here.

In one data set the target is T1, PARP1 (Homo sapiens, UniProt P09874).
T1 construct: Recombinant full length 6HIS tagged PARP1 protein; 6HIS
Put plainly: PARP fluorescence anisotropy binding assay, PARP1. The note with it: recombinant full length 6HIS tagged PARP1.

Another data set concerns the target T2, PARP3 (Homo sapiens, UniProt Q9Y6F1).
T2 construct: Recombinant full length PARP3 protein
T2 sequence (Q9Y6F1 1-533): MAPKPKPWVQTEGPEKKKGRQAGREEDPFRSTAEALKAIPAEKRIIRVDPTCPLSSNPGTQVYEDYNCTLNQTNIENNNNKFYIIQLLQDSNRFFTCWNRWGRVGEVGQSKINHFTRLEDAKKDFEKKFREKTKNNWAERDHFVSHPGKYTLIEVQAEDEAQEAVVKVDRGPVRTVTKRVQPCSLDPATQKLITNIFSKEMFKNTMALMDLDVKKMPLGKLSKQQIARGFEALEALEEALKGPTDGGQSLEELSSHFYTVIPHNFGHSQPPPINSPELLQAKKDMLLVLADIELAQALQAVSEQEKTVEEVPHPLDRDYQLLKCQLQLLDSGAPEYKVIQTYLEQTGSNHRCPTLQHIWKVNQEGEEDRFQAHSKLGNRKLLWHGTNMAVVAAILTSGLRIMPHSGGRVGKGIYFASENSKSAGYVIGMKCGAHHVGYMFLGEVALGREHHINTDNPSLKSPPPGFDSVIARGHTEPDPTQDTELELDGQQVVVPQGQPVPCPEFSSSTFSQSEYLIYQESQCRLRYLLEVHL
Put plainly: PARP fluorescence anisotropy binding assay, PARP3. The note with it: recombinant full length PARP3. From the text: (§1) PARP Fluorescence Anisotropy Binding Assays
(In general: Fluorescence polarisation rises when a labelled molecule tumbles more slowly, as on binding a larger partner.)

A further data set deals with PARP5a (Homo sapiens, UniProt O95271). Put plainly: PARP fluorescence anisotropy binding assay, PARP5a binding domain. The note with it: recombinant PARP5a binding domain.
Text: as §1

A further data set concerns the target T3, PARP6 (Homo sapiens, UniProt Q2NL67).
T3 construct: Recombinant full length GST tagged PARP6 protein; GST
Put plainly: PARP fluorescence anisotropy binding assay, PARP6. The note with it: recombinant full length GST tagged PARP6. Here is the method: as §1
Recombinant full length GST tagged PARP6 protein was diluted to 160 nM with 50 mM Tris pH 8, 0.001% Triton X100, 10 mM MgCl2, 150 mM NaCl and incubated for four hours with an equivalent volume of 6 nM fluorescent probe diluted with 50 mM Tris pH 8, 0.001% Triton X100, 10 mM MgCl2, 150 mM NaCl. The final DMSO concentration of the probe was kept below 1% (v/v).
Fluorescence anisotropy of the probe when bound to the proteins was measured using a BMG Pherastar FSX© in the presence of test compounds or solvent control and the effect on anisotropy determined. % inhibition values for different test compound concentrations were calculated and fitted to a four parameter logistic plot in order to determine the IC50 value. Where necessary, the compound Ki can be determined from the IC50 value using a Munson Rodbard equation defined in Anal Biochem. 1980 Sep. 1; 107(1):220-39 and is based on the known KD of the probe binding to the relevant PARP protein

Another data set deals with hERG (Homo sapiens, UniProt Q12809). Put plainly: hERG inhibition. From the text:
It is well known that blockade of the cardiac ion channel coded by human ether-n-gogo-related gene (hERG) is a risk factor in drug discovery and development. Blockage of hERG can cause safety problems such as cardiac arrhythmia. Advantageously, the compounds of Formula I have low hERG activity.
Background: The hERG channel carries a current that helps repolarise heart muscle cells.

Another data set deals with BRCA2 (−/−) DLD1 cells. Put plainly: PARP proliferation assay (7 day compound dosing), BRCA2 (−/−) DLD1. It is filed as cell-based. The note with it: BRCA2 −/− DLD-1 cells, 7 day dosing, read-out: BRCA2 −/− DLD-1 prolif. 7 d IC50. The protocol:
(§2) PARP Proliferation Assay (7 Day Compound Dosing)
(§3) DLD1 and BRCA2 (−/−) DLD1 cells were harvested to a density of 5000 cells/ml and 2.5E4 cells/ml respectively in complete media, 40 μL/well seeded into 384-well plates (Greiner, Kremsmunster, Austria; 781090) using a Multidrop Combi then incubated at 37° C., 5% CO2 overnight. Next day (Day 1) using a Multidrop Combi add sytoxgreen (5 ul, 2 uM) and saponin (10 ul, 0.25% stock) to a day 0 plate, seal the plate using a black adhesive lid and incubate for >3 h at rt. Cells were imaged using Cell Insight (Thermo Fisher) fitted with a 4× objective. Test compounds are added using an Echo 555 and placed in incubator maintained at 37° C., 5% CO2 and incubated for 7 days. On Day 8 add sytox green (5 ul, 2 uM) and then saponin (10 ul, 0.25% stock) to plates, seal the plate using a black adhesive lid and incubate for >3 h at rt. Read all cells on the Cell Insight with 4× Objective. The rate of proliferation is determined in Genedata by assessing the total cell number output from the Cell Insight for Day 0 and Day 8 plates.

Another data set concerns MDR1 and BCRP. Put plainly: In vitro human transporter efflux (MDCK-MDR1-BCRP). The note with it: human, pH 7.4, Papp(B to A)/Papp(A to B), 1 or 0.1 μM, 90-min incubation. The data set is classed as in vitro ADME.
Another data set deals with T4, PARP2 (Homo sapiens, UniProt Q9UGN5).
T4 construct: Recombinant full length PARP2 protein
Put plainly: PARP fluorescence anisotropy binding assay, PARP2. The note with it: recombinant full length PARP2. Here is the method:
as §1
Recombinant full length PARP2 protein was diluted to 6 nM with 50 mM Tris pH 8, 0.001% Triton X100, 10 mM MgCl2, 150 mM NaCl and incubated for four hours with an equivalent volume of 2 nM fluorescent probe diluted with 50 mM Tris pH 8, 0.001% Triton X100, 10 mM MgCl2, 150 mM NaCl. The final DMSO concentration of the probe was kept below 1% (v/v).
Fluorescence anisotropy of the probe when bound to the proteins was measured using a BMG Pherastar FSX© in the presence of test compounds or solvent control and the effect on anisotropy determined. % inhibition values for different test compound concentrations were calculated and fitted to a four parameter logistic plot in order to determine the IC50 value.

The next data set deals with DLD1 cells. Put plainly: PARP proliferation assay (7 day compound dosing), WT DLD1. The note with it: Homo sapiens, 168 h; WT DLD-1 cells, 7 day dosing; read-out: WT DLD-1 prolif. 7 d IC50. It is filed as cell-based. The protocol:
as §2, §3

Data set [1] concerns MDCKII cells expressing MDR1 and BCRP. Put plainly: In vitro human transporter efflux (MDCK-MDR1-BCRP). It is filed as in vitro ADME. The note with it: Papp(B to A)/Papp(A to B), 1 or 0.1 μM, 90-min incubation.
Experimental: In Vitro Human Transporter Efflux
MDCKII cells expressing MDR1 and BCRP were seeded onto polyethylene membranes in 96-well Transwell insert systems at a density to form a confluent cell monolayer. […] The final percent volume of the organic solvent was less than 1%. Permeation of the test compounds from A to B direction and from B to A direction was determined over a 90-min incubation at 37° C. and 5% CO2 with a relative humidity of 95%. At the end of the incubation, samples from the apical and basolateral side were taken and then precipitated with cold acetonitrile containing internal standard. After centrifugation at 4000 rpm, the supernatant was diluted with 0.1% formic acid aqueous solution and quantified by LC-MS/MS. The integrity of the cell monolayers was confirmed by using the marker Lucifer yellow.
(1) The efflux ratio was calculated using the following equation Efflux ratio=Papp(B to A)/Papp(A to B)
(2) where dCr/dt is the cumulative concentration of the compound in the receiver chamber as a function of time (in μM/s); Vr is the solution volume in the receiver chamber (0.1 ml on the apical side and 0.3 ml on the basolateral side); A is the surface area for the transport, that is, 0.11 cm2 for the area of the monolayer; and CO is the initial concentration in the donor chamber (in μM).

T3 sequence (Q2NL67 whole entry): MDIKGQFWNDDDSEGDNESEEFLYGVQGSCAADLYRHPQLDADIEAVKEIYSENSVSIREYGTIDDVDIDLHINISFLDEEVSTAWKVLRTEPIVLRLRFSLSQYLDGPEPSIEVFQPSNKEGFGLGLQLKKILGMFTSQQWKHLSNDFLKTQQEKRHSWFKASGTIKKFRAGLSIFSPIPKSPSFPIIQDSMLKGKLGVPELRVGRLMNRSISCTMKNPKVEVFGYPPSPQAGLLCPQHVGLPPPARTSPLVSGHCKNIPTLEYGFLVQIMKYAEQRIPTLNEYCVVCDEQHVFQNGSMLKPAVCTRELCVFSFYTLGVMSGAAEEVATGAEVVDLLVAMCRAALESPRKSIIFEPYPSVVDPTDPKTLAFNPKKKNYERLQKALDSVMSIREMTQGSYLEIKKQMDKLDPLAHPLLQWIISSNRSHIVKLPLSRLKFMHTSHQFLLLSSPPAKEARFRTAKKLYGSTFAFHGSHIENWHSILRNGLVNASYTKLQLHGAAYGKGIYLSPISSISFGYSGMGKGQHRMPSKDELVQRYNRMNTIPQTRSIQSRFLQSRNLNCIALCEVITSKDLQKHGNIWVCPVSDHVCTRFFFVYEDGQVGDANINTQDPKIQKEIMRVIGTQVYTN
Sequence of hERG (Q12809 whole entry): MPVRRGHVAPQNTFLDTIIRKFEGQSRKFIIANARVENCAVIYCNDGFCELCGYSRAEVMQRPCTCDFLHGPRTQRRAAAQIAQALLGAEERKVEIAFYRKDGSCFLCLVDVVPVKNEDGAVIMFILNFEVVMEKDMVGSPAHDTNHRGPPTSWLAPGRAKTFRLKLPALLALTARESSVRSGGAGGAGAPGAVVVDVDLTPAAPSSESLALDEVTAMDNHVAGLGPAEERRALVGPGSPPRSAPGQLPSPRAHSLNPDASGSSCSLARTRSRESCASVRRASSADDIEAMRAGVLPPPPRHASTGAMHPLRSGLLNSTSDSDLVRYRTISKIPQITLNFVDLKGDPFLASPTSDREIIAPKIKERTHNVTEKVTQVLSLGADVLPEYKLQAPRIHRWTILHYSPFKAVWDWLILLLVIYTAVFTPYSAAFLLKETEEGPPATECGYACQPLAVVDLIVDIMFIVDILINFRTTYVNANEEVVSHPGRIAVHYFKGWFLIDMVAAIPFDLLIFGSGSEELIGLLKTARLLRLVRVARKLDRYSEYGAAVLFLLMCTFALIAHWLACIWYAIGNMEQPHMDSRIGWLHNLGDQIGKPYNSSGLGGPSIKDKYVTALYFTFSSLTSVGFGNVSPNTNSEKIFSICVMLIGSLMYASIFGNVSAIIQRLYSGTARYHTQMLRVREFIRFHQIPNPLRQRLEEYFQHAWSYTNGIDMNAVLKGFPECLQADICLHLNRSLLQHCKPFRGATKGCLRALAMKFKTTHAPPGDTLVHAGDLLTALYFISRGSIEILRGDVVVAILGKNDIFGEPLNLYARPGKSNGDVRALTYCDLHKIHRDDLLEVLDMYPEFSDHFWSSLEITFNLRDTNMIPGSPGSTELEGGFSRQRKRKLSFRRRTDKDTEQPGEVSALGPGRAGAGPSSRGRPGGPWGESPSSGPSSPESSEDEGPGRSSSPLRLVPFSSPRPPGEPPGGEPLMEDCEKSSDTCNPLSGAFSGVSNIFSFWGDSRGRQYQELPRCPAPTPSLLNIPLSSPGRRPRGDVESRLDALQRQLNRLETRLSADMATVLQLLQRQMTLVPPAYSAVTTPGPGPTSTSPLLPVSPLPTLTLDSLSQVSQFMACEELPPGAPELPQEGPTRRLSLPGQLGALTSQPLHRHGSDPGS
Sequence of PARP5a (O95271 1112-1317): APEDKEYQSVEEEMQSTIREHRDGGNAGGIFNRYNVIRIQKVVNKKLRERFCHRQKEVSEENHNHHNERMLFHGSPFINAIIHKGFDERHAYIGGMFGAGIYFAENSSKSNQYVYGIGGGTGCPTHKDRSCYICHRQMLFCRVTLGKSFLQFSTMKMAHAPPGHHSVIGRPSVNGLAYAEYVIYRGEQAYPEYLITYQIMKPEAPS
T4 sequence (Q9UGN5 whole entry): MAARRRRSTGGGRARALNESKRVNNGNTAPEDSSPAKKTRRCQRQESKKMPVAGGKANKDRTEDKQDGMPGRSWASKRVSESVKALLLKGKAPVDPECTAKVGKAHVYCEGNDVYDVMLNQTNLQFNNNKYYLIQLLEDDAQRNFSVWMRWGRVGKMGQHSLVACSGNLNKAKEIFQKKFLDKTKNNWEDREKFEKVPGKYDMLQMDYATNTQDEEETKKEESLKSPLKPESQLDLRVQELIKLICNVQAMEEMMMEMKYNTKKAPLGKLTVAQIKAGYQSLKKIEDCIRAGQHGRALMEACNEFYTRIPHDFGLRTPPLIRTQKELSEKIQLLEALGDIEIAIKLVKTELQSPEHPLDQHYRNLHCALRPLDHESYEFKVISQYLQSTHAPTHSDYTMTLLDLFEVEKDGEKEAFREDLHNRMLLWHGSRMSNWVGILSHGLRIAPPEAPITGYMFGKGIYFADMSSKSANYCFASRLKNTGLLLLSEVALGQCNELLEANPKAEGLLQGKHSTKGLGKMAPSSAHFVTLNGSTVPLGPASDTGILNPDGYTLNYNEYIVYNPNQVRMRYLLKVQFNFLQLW
T1 sequence (P09874 whole entry): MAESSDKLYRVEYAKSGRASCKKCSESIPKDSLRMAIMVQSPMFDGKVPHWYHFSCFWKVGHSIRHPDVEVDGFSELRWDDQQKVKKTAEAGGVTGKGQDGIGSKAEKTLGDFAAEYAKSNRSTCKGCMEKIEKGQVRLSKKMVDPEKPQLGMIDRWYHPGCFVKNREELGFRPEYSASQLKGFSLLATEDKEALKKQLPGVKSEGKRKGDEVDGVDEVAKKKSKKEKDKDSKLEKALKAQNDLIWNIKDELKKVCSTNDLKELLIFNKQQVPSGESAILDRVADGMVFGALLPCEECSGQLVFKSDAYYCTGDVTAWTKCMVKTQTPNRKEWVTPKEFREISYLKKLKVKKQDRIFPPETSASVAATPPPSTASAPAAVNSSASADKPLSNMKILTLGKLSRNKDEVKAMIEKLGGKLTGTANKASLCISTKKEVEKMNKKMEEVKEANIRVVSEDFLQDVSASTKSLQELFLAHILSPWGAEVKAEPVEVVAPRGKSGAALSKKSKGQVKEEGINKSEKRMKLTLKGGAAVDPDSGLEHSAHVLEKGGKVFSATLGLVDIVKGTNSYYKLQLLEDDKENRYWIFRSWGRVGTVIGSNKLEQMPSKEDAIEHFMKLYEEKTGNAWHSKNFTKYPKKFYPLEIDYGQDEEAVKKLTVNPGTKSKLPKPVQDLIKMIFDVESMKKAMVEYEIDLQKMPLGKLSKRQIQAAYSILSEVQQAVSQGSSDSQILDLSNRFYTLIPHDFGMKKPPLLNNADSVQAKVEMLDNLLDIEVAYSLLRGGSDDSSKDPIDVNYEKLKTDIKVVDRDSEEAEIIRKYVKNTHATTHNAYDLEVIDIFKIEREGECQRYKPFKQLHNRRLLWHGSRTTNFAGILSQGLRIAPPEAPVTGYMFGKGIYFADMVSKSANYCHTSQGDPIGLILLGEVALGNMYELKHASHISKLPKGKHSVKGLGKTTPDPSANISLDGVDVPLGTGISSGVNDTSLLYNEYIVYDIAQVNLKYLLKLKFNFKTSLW
Experimental for PARP1: Recombinant full length 6HIS tagged PARP1 protein was diluted to 6 nM with 50 mM Tris pH 8, 0.001% Triton X100, 10 mM MgCl2, 150 mM NaCl and incubated for four hours with an equivalent volume of 2 nM fluorescent probe diluted with 50 mM Tris pH 8, 0.001% Triton X100, 10 mM MgCl2, 150 mM NaCl. The final DMSO concentration of the probe was kept below 1% (v/v).

For `CNC(=O)c1ccc(N2CCN(Cc3ccc4nc(C(C)F)c(=O)[nH]c4c3F)CC2)c(F)n1` (single isomer, unassigned) [Example 12, 6-fluoro-5-[4-[[5-fluoro-2-[(1S OR 1R)-1-fluoroethyl]-3-oxo-4H-quinoxalin-6-yl]methyl]piperazin-1-yl]-N-methyl-pyridine-2-carboxamide], the IC50 at PARP1 was 0.015 µM; on PARP3, 85 µM; at PARP5a it was greater than 100 µM; at PARP6 it was greater than 100 µM; at hERG, greater than 40 µM; with BRCA2 (−/−) DLD1 cells, 0.008 µM. The efflux ratio at 90 min in the data set with MDR1 and BCRP amounted to 4.2.
For the molecule `CNC(=O)c1ccc(N2CCN(Cc3ccc4nc(C(C)F)c(=O)[nH]c4c3F)CC2)c(F)n1` (single isomer, unassigned) [Example 13, 6-fluoro-5-[4-[[5-fluoro-2-[(1S OR 1R)-1-fluoroethyl]-3-oxo-4H-quinoxalin-6-yl]methyl]piperazin-1-yl]-N-methyl-pyridine-2-carboxamide], the IC50 is 0.009 µM at PARP1; greater than 100 µM on PARP2; 62 µM on PARP3; greater than 100 µM at PARP5a; greater than 100 µM at PARP6; greater than 40 µM at hERG. Further, the IC50 in the data set on BRCA2 (−/−) DLD1 cells is 0.019 µM; in the data set with DLD1 cells it was 22 µM. For the same molecule, the “MDCK-MDR1-BCRP Efflux Ratio” value in [1] came out at 3.0.
Consider `CNC(=O)c1ccc(N2CCN(Cc3ccc4nc(C(C)F)c(=O)[nH]c4c3F)CC2)c(C)n1` (single isomer, unassigned) [Example 14, 5-[4-[[5-fluoro-2-[(1S OR 1R)-1-fluoroethyl]-3-oxo-4H-quinoxalin-6-yl]methyl]piperazin-1-yl]-N,6-dimethyl-pyridine-2-carboxamide], for which the efflux ratio at 90 min in the data set on MDR1 and BCRP is 3.7.
On to `CNC(=O)c1ccc(N2CCN(Cc3ccc4nc(C)c(=O)[nH]c4c3Cl)CC2)cn1` [Example 16, 5-[4-[(5-chloro-2-methyl-3-oxo-4H-quinoxalin-6-yl)methyl]piperazin-1-yl]-N-methyl-pyridine-2-carboxamide], for which the IC50 on PARP2 was greater than 100 µM; at PARP3 it was greater than 100 µM; at PARP5a it was greater than 29 µM; on PARP6, greater than 100 µM; against hERG, greater than 40 µM; in the data set on BRCA2 (−/−) DLD1 cells (Homo sapiens, DLD-1, 168 h), 3.62 µM. Moreover, in the data set with DLD1 cells, the IC50 is greater than 30 µM.
As to `CNC(=O)c1ccc(N2CCN(Cc3ccc4nc(C)c(=O)[nH]c4c3Cl)CC2)c(F)n1` [Example 17, 5-[4-[(5-chloro-2-methyl-3-oxo-4H-quinoxalin-6-yl)methyl]piperazin-1-yl]-6-fluoro-N-methyl-pyridine-2-carboxamide], the IC50 at PARP2 was greater than 100 µM; at PARP3, greater than 100 µM; on PARP5a, greater than 100 µM; on PARP6 it was greater than 100 µM; on hERG, greater than 40 µM; in the data set with BRCA2 (−/−) DLD1 cells (Homo sapiens, DLD-1, 168 h), 1.05 µM. For the same molecule, in the data set on DLD1 cells, the IC50 is greater than 10 µM.
